In PMC10536189 (Microorganisms, 2023):
Like-named read-outs stand apart in the source and are kept apart here.

Test system: M. tuberculosis
Type: cell-based, Mycobacterium tuberculosis (laboratory strain H37Rv)
Settings: for Time to Positivity (Days.Hours) Experiment 2a / Time to Positivity (Days.Hours) Experiment 2b: diluted inoculum; for Time to Positivity (Days.Hours) Experiment 2a: technical repeat 2a, TB control (no peptide) 15.01; for Time to Positivity (Days.Hours) Experiment 2b: technical repeat 2b, TB control (no peptide) 15.20; for Time to Positivity (Days.Hours) Experiment 1a / Time to Positivity (Days.Hours) Experiment 1b: less diluted inoculum; for Time to Positivity (Days.Hours) Experiment 1a: technical repeat 1a, TB control (no peptide) 7.02; for Time to Positivity (Days.Hours) Experiment 1b: technical repeat 1b, TB control (no peptide) 7.01; for Average % Faster than Control: negative = slower
[1] = peptide 10 µg/mL, overall average of the averages of experiments 1a/1b and 2a/2b
[2] = crude peptide 10 µg/mL, average of experiments 1 and 2
[3] = crude peptide 10 µg/mL, MGIT, independent experiment 1, Control (TB only) 11.10, inoculum emulsified through G25 needle
[4] = crude peptide 10 µg/mL, MGIT, independent experiment 2, Control (TB only) 9.10, inoculum emulsified through G25 needle

Substance | Time to Positivity (Days.Hours) Experiment 2a (peptide 10 µg/mL, MGIT) [Days.Hours] | Time to Positivity (Days.Hours) Experiment 2b (peptide 10 µg/mL, MGIT) [Days.Hours] | Time to Positivity (Days.Hours) Experiment 1a (peptide 10 µg/mL, MGIT) [Days.Hours] | Time to Positivity (Days.Hours) Experiment 1b (peptide 10 µg/mL, MGIT) [Days.Hours] | Average % Faster than Control [1] [%] | Effect on TTP of MTB in words (peptide 10 µg/mL, MGIT) | Time to Positivity (Day.Hours) Experiment 1 [Day.Hours] | Time to Positivity (Day.Hours) Experiment 2 [Day.Hours] | Average % Faster than Control [2] [%] | Time to Positivity (Day.Hours) Experiment 1 [3] [Day.Hours] | Time to Positivity (Day.Hours) Experiment 2 [4] [Day.Hours]
3: peptide from the authors' library (WKWRVRVTI) [Peptide 3] | 14.22 | 15.02 | 6.08 | 6.17 | 4.0 |  |  |  |  |  | 
5: peptide from the authors' library; same sequence as P8/Designed * (FFIYVWRRR) [Peptide 5] | 14.06 | 14.16 | 5.21 | 6.08 | 8.8 |  |  |  |  |  | 
9: peptide from the authors' library; same sequence as P9/Designed (KRRWRIWLV) [Peptide 9] | 15.08 | 14.21 | 6.07 | 6.04 | 5.8 |  |  |  |  |  | 
12: peptide from the authors' library (RRRIKIRWY) [Peptide 12] | 14.08 | 14.22 | 6.14 | 5.20 | 10.2 | strong hormetic response |  |  |  |  | 
16: peptide from the authors' library (RLKRWWKFL) [Peptide 16] | 14.17 | 14.20 | 6.01 | 5.22 | 8.6 |  |  |  |  |  | 
20: peptide from the authors' library (KWKWWWRKI) [Peptide 20] | 14.01 | 14.16 | 6.11 | 6.00 | 8.3 |  |  |  |  |  | 
22: peptide from the authors' library (IRMRIRVLL) [Peptide 22] | 15.19 | 15.10 | 6.00 | 6.07 | 4.7 |  |  |  |  |  | 
29: peptide from the authors' library (RWRWWWRVY) [Peptide 29] | 15.12 | 15.01 | 6.13 | 6.00 | 4.9 |  |  |  |  |  | 
49: peptide from the authors' library (VRLRIRVRVIRK) [Peptide 49] | 15.12 | 15.02 | 5.22 | 6.06 | 6.2 |  |  |  |  |  | 
59: peptide from the authors' library (ILKWKRKWWKWRR) [Peptide 59] | 13.19 | 12.22 | 5.17 | 5.22 | 14.5 |  |  |  |  |  | 
60: peptide from the authors' library (ILKWKIFKWKWFR) [Peptide 60] | 14.19 | 14.16 | 6.03 | 6.02 | 7.9 |  |  |  |  |  | 
61: peptide from the authors' library (ILKWKTKWWKWFR) [Peptide 61] | 13.11 | 14.21 | 6.20 | 5.23 | 10.4 |  |  |  |  |  | 
62: peptide from the authors' library (ILKWKMFKWKWFR) [Peptide 62] | 16.20 | 17.16 | 6.07 | 7.02 | −3.4 | delayed TTP |  |  |  |  | 
63: peptide from the authors' library; same sequence as Indolicidin/Cow (ILPWKWPWWPWRR) [Peptide 63] | 17.01 | 17.10 | 6.22 | 6.22 | −5.5 | delayed TTP |  |  |  |  | 
64: peptide from the authors' library (RLARIVVIRVAR) [Peptide 64] | 15.21 | 16.13 | 6.19 | 6.16 | −1.4 |  |  |  |  |  | 
65: peptide from the authors' library (RGARIVVIRVAR) [Peptide 65] | 16.11 | 16.01 | 6.16 | 6.03 | 0.8 |  |  |  |  |  | 
66: peptide from the authors' library (RRARIVVIRVAR) [Peptide 66] | 17.06 | 17.16 | 6.05 | 6.16 | −3.5 |  |  |  |  |  | 
67: peptide from the authors' library (RLWRIVVIRVAR) [Peptide 67] | 16.00 | 16.05 | 6.19 | 6.11 | −0.4 |  |  |  |  |  | 
68: peptide from the authors' library (RLRRIVVIRVAR) [Peptide 68] | 15.00 | 15.23 | 6.09 | 6.17 | 2.3 |  |  |  |  |  | 
71: peptide from the authors' library (RLWRIVVIRVKR) [Peptide 71] | 14.01 | 14.02 | 6.04 | 6.06 | 9.4 |  |  |  |  |  | 
76: peptide from the authors' library (VRWRIRVAVIRA) [Peptide 76] | 16.08 | 16.14 | 6.13 | 6.16 | −1.4 |  |  |  |  |  | 
77: peptide from the authors' library (VRLRIRVAVIRA) [Peptide 77] | 14.22 | 15.03 | 6.14 | 6.04 | 5.0 |  |  |  |  |  | 
ALKAALLAILKIVRVI [CM-3/Designed] |  |  |  |  |  |  | 11.04 | 8.03 | 8.0 |  | 
Bombolitin V/Bee: naturally occurring peptide, APD3, bee (INVLGILGLLGKALSHL) |  |  |  |  |  |  | 10.22 | 8.13 | 6.8 |  | 
CM15/Bee venom: peptide from APD3, bee venom (KWKLFKKIGAVLKVL) |  |  |  |  |  |  | 10.19 | 8.01 | 10.0 |  | 
Eumenitin/Wasp: naturally occurring peptide, APD3, wasp (LNLKGIFKKVASLLT) |  |  |  |  |  |  | 11.00 | 8.08 | 7.6 |  | 
FFGSVLKLIPKIL [Temporin-PTa/Frog, naturally occurring peptide, APD3, frog] |  |  |  |  |  |  |  |  | 6.3 | 11.07 | 8.08
FFHHIFRGIVHVGKTI [Piscidin 1/Fish *, fragment of naturally occurring peptide, APD3, fish] |  |  |  |  |  |  |  |  | 7.8 | 10.18 | 8.12
FFIYVWRRR [P8/Designed *] |  |  |  |  |  |  | 11.16 | 8.22 | 1.6 |  | 
